Source: patent US6896895B2, “Carotenoid esters, carotenoid-enriched feeds, and methods of pigmenting foods and foodstuffs” (DSM IP Assets B.V., priority 2000, dated 2005)

Tests used:
[1] = Carotenoid ester content in plasma, back skin and abdominal fat of broilers (HPLC); assay type: in vivo, broiler chickens (Ross 308, Ross 508); settings: for concentrations determined as equivalents of the ethyl β-apo-8′-carotenoate, in the skin: in comparison to the other 12 tested carotenoid esters
Outline: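 Ross 308/508 broilers, raised on low-carotenoid basal diet (<2 mg xanthophylls/kg) to day 15 or 22, then fed pigment-supplemented diet for three weeks; plasma sampled day 42, back skin and abdominal fat pooled per group at slaughter on day 44. Carotenoid esters quantified by normal-phase HPLC (0.5% acetone in n-hexane) calibrated with all-E ethyl β-apo-8′-carotenoate; Z-isomers corrected by factor 1.4.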

[2] = system: skin and shanks of broilers; experiment: Reflectance colorimetry and visual classification of skin and shanks of broilers; assay type: in vivo, broiler chickens (Ross 308, Ross 508); design: key to Shanks Visual Classification / Skin Visual Classification: −; (+); +; ++ = good color; o = orange; settings: for Shanks Chroma C*ab % of Controls / Shanks Color Hue h*ab % of Controls / Skin Chroma C*ab % of Controls / Skin Color Hue h*ab % of Controls / Shanks Chroma C*ab Value / Shanks Color Hue h*ab Value / Shanks Visual Classification / Skin Chroma C*ab Value / Skin Color Hue h*ab Value / Skin Visual Classification: dry carcasses; for chroma C*a*b* values in the skin and in the shanks / color hue h*a*b* in the skin and in the shanks / effectiveness in terms of concentration in the skin, and color intensity (chroma C*a*b*) in the skin and shanks: versus the control
Outline: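 Ross broilers were fed a low-carotenoid basal diet (<2 mg xanthophylls/kg), then received pigment-supplemented diet for three weeks and were slaughtered on day 44. Back-skin colour (mean of three points) and shank colour (single reading) were measured by Minolta chromameter (D65, 0°) and reported as CIE L*a*b*, h* and C*, averaged over ten birds (5 male, 5 female).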

[3] = average over doses, in relation to the controls (CAROPHYLL Yellow) of the same trial, Table 3
[4] = trial MC-24/99, 20 mg/kg feed, in relation to the controls of the same trial
[5] = trial MC-24/99, 30 mg/kg feed, in relation to the controls of the same trial
[6] = trial MC-11/99, 8.88 mg/kg feed
[7] = trial MC-11/99, 13.33 mg/kg feed

## CC(C=CC=C(C)C=CC1=C(C)CCCC1(C)C)=CC=CC=C(C)C=CC=C(C)C(=O)OC(C)(C)C [compound (18), tert. butyl beta-apo-8′-carotenoate]
[1]; [3]
  Analytical Content as Equivalent of Ethyl β-apo-8′-carotenoate Fat %: 113%
  Analytical Content as Equivalent of Ethyl β-apo-8′-carotenoate Plasma %: 103%
  Analytical Content as Equivalent of Ethyl β-apo-8′-carotenoate Skin %: 198%
[1]; average over doses, in relation to the controls (CAROPHYLL Yellow) of the same trial, Table 3, listed as tert. Butyl β-apo-8′-carotenoate
  Analytical Content as Equivalent of Ethyl β-apo-8′-carotenoate Skin %: 189%
[1]
  concentrations determined as equivalents of the ethyl β-apo-8′-carotenoate, in the skin: substantially higher
[1]; trial MC-24/99, 20 mg/kg feed
  Analytical Content as Equivalent of Ethyl β-apo-8′-carotenoate Fat: 3.7 mg/kg
  Analytical Content as Equivalent of Ethyl β-apo-8′-carotenoate Plasma: 12.2 mg/kg
  Analytical Content as Equivalent of Ethyl β-apo-8′-carotenoate Skin: 5.4 mg/kg
[1]; [4]
  Analytical Content as Equivalent of Ethyl β-apo-8′-carotenoate Fat %: 119%
  Analytical Content as Equivalent of Ethyl β-apo-8′-carotenoate Plasma %: 117%
  Analytical Content as Equivalent of Ethyl β-apo-8′-carotenoate Skin %: 194%
[1]; trial MC-24/99, 30 mg/kg feed
  Analytical Content as Equivalent of Ethyl β-apo-8′-carotenoate Fat: 4.6 mg/kg
  Analytical Content as Equivalent of Ethyl β-apo-8′-carotenoate Plasma: 14.1 mg/kg
  Analytical Content as Equivalent of Ethyl β-apo-8′-carotenoate Skin: 6.4 mg/kg
[1]; [5]
  Analytical Content as Equivalent of Ethyl β-apo-8′-carotenoate Fat %: 107%
  Analytical Content as Equivalent of Ethyl β-apo-8′-carotenoate Plasma %: 88%
  Analytical Content as Equivalent of Ethyl β-apo-8′-carotenoate Skin %: 184%
[2]; average over doses, Table 5
  Shanks Chroma C*ab % of Controls: 113%
  Shanks Color Hue h*ab % of Controls: 100%
  Skin Chroma C*ab % of Controls: 115%
  Skin Color Hue h*ab % of Controls: 105%
[2]; trial MC-24/99, 20 mg/kg feed
  Shanks Chroma C*ab % of Controls: 114%
  Shanks Chroma C*ab Value: 63
  Shanks Color Hue h*ab % of Controls: 100%
  Shanks Color Hue h*ab Value: 84
  Shanks Visual Classification: +
  Skin Chroma C*ab % of Controls: 116%
  Skin Chroma C*ab Value: 38
  Skin Color Hue h*ab % of Controls: 107%
  Skin Color Hue h*ab Value: 81
  Skin Visual Classification: +
[2]; trial MC-24/99, 30 mg/kg feed
  Shanks Chroma C*ab % of Controls: 111%
  Shanks Chroma C*ab Value: 70
  Shanks Color Hue h*ab % of Controls: 99%
  Shanks Color Hue h*ab Value: 82
  Shanks Visual Classification: ++
  Skin Chroma C*ab % of Controls: 113%
  Skin Chroma C*ab Value: 41
  Skin Color Hue h*ab % of Controls: 102%
  Skin Color Hue h*ab Value: 80
  Skin Visual Classification: ++
[2]
  chroma C*a*b* values in the skin and in the shanks: substantially enhanced
  color hue h*a*b* in the skin and in the shanks: not significantly changed
  effectiveness in terms of concentration in the skin, and color intensity (chroma C*a*b*) in the skin and shanks: significantly more effective

## CC1=C(/C=C/C(C)=C/C=C/C(C)=C/C=C/C=C(C)/C=C/C=C(\C)C(=O)OC(C)C)C(C)(C)CCC1 [compound (17), isopropyl beta-apo-8′-carotenoate]
[1]; [3]
  Analytical Content as Equivalent of Ethyl β-apo-8′-carotenoate Fat %: 88%
  Analytical Content as Equivalent of Ethyl β-apo-8′-carotenoate Plasma %: 129%
  Analytical Content as Equivalent of Ethyl β-apo-8′-carotenoate Skin %: 134%
[1]
  concentrations determined as equivalents of the ethyl β-apo-8′-carotenoate, in the skin: substantially higher
[1]; trial MC-02/99, 10 mg/kg feed
  Analytical Content as Equivalent of Ethyl β-apo-8′-carotenoate Fat: 1.8 mg/kg
  Analytical Content as Equivalent of Ethyl β-apo-8′-carotenoate Plasma: 6.3 mg/kg
  Analytical Content as Equivalent of Ethyl β-apo-8′-carotenoate Skin: 2.0 mg/kg
[1]; trial MC-02/99, 20 mg/kg feed
  Analytical Content as Equivalent of Ethyl β-apo-8′-carotenoate Fat: 3.3 mg/kg
  Analytical Content as Equivalent of Ethyl β-apo-8′-carotenoate Plasma: 13.4 mg/kg
  Analytical Content as Equivalent of Ethyl β-apo-8′-carotenoate Skin: 4.1 mg/kg
[1]; [6]
  Analytical Content as Equivalent of Ethyl β-apo-8′-carotenoate Fat: 1.2 mg/kg
  Analytical Content as Equivalent of Ethyl β-apo-8′-carotenoate Plasma: 6.0 mg/kg
  Analytical Content as Equivalent of Ethyl β-apo-8′-carotenoate Skin: 1.6 mg/kg
[1]; [7]
  Analytical Content as Equivalent of Ethyl β-apo-8′-carotenoate Fat: 1.9 mg/kg
  Analytical Content as Equivalent of Ethyl β-apo-8′-carotenoate Plasma: 8.6 mg/kg
  Analytical Content as Equivalent of Ethyl β-apo-8′-carotenoate Skin: 2.6 mg/kg
[1]; trial MC-11/99, 20 mg/kg feed
  Analytical Content as Equivalent of Ethyl β-apo-8′-carotenoate Fat: 2.9 mg/kg
  Analytical Content as Equivalent of Ethyl β-apo-8′-carotenoate Plasma: 13.3 mg/kg
  Analytical Content as Equivalent of Ethyl β-apo-8′-carotenoate Skin: 3.7 mg/kg
[1]; trial MC-11/99, 30 mg/kg feed
  Analytical Content as Equivalent of Ethyl β-apo-8′-carotenoate Fat: 3.4 mg/kg
  Analytical Content as Equivalent of Ethyl β-apo-8′-carotenoate Plasma: 18.3 mg/kg
  Analytical Content as Equivalent of Ethyl β-apo-8′-carotenoate Skin: 6.1 mg/kg
[1]; trial MC-11/99, 45 mg/kg feed
  Analytical Content as Equivalent of Ethyl β-apo-8′-carotenoate Fat: 6.4 mg/kg
  Analytical Content as Equivalent of Ethyl β-apo-8′-carotenoate Plasma: 30.6 mg/kg
  Analytical Content as Equivalent of Ethyl β-apo-8′-carotenoate Skin: 9.0 mg/kg
[1]; trial MC-24/98, 15 mg/kg feed
  Analytical Content as Equivalent of Ethyl β-apo-8′-carotenoate Fat: 2.3 mg/kg
  Analytical Content as Equivalent of Ethyl β-apo-8′-carotenoate Plasma: 10.0 mg/kg
  Analytical Content as Equivalent of Ethyl β-apo-8′-carotenoate Skin: 2.5 mg/kg
[1]; trial MC-24/98, 30 mg/kg feed
  Analytical Content as Equivalent of Ethyl β-apo-8′-carotenoate Fat: 4.5 mg/kg
  Analytical Content as Equivalent of Ethyl β-apo-8′-carotenoate Plasma: 19.9 mg/kg
  Analytical Content as Equivalent of Ethyl β-apo-8′-carotenoate Skin: 5.6 mg/kg
[2]; average over doses, Table 5
  Shanks Chroma C*ab % of Controls: 115%
  Shanks Color Hue h*ab % of Controls: 99%
  Skin Chroma C*ab % of Controls: 113%
  Skin Color Hue h*ab % of Controls: 102%
[2]; [7]
  Shanks Chroma C*ab % of Controls: 97%
  Shanks Chroma C*ab Value: 70
  Shanks Color Hue h*ab % of Controls: 99%
  Shanks Color Hue h*ab Value: 84
  Shanks Visual Classification: (+)
  Skin Chroma C*ab % of Controls: 116%
  Skin Chroma C*ab Value: 29
  Skin Color Hue h*ab % of Controls: 105%
  Skin Color Hue h*ab Value: 77
  Skin Visual Classification: (+)
[2]; trial MC-11/99, 20 mg/kg feed
  Shanks Chroma C*ab % of Controls: 125%
  Shanks Chroma C*ab Value: 59
  Shanks Color Hue h*ab % of Controls: 103%
  Shanks Color Hue h*ab Value: 87
  Shanks Visual Classification: +
  Skin Chroma C*ab % of Controls: 106%
  Skin Chroma C*ab Value: 33
  Skin Color Hue h*ab % of Controls: 100%
  Skin Color Hue h*ab Value: 78
  Skin Visual Classification: +
[2]; trial MC-11/99, 30 mg/kg feed
  Shanks Chroma C*ab % of Controls: 108%
  Shanks Chroma C*ab Value: 65
  Shanks Color Hue h*ab % of Controls: 97%
  Shanks Color Hue h*ab Value: 83
  Shanks Visual Classification: +
  Skin Chroma C*ab % of Controls: 119%
  Skin Chroma C*ab Value: 40
  Skin Color Hue h*ab % of Controls: 102%
  Skin Color Hue h*ab Value: 79
  Skin Visual Classification: +
[2]; trial MC-11/99, 45 mg/kg feed
  Shanks Chroma C*ab % of Controls: 108%
  Shanks Chroma C*ab Value: 71
  Shanks Color Hue h*ab % of Controls: 101%
  Shanks Color Hue h*ab Value: 84
  Shanks Visual Classification: ++(o)
  Skin Chroma C*ab % of Controls: 105%
  Skin Chroma C*ab Value: 44
  Skin Color Hue h*ab % of Controls: 103%
  Skin Color Hue h*ab Value: 79
  Skin Visual Classification: ++
[2]; trial MC-24/98, 30 mg/kg feed
  Shanks Chroma C*ab % of Controls: 137%
  Shanks Chroma C*ab Value: 71
  Shanks Color Hue h*ab % of Controls: 93%
  Shanks Color Hue h*ab Value: 80
  Shanks Visual Classification: +
  Skin Chroma C*ab % of Controls: 119%
  Skin Chroma C*ab Value: 39
  Skin Color Hue h*ab % of Controls: 102%
  Skin Color Hue h*ab Value: 82
  Skin Visual Classification: +
[2]
  chroma C*a*b* values in the skin and in the shanks: substantially enhanced
  color hue h*a*b* in the skin and in the shanks: not significantly changed
  effectiveness in terms of concentration in the skin, and color intensity (chroma C*a*b*) in the skin and shanks: significantly more effective
